# Reference: ChEMBL document CHEMBL3862012, “Methylene versus carbonyl bridge in the structure of new tubulin polymerization inhibitors with tricyclic A-rings” (Bioorg Med Chem, 2016)
# Species: Ovis aries
# Assay: Inhibition of sheep brain tubulin polymerization at 100 uM by DAPI staining-based fluorimetric method relative to control
# Conditions: not given
row,SMILES,inhibition [%]
1,COc1ccc(CN2c3ccccc3Sc3ccccc32)c(C(F)(F)F)c1,15

# System: not listed separately
# Assay: Cytotoxicity against human CCRF-CEM cells assessed as growth inhibition at 10 uM after 48 hrs by SRB assay relative to control
# Format: functional
# Conditions: read-out: GI
row,SMILES,inhibition of growth at 10 µM [%]
1,COc1ccc(CN2c3ccccc3Sc3ccccc32)c(C(F)(F)F)c1,90

# System: not listed separately
# Assay: Cytotoxicity against human HL-60(TB) cells assessed as growth inhibition at 10 uM after 48 hrs by SRB assay relative to control
# Format: functional
# Conditions: HL-60, 48 h, read-out: GI
row,SMILES,inhibition of growth at 10 µM [%]
1,COc1ccc(CN2c3ccccc3Sc3ccccc32)c(C(F)(F)F)c1,76

# System: not listed separately
# Assay: Cytotoxicity against human MOLT4 cells assessed as growth inhibition at 10 uM after 48 hrs by SRB assay relative to control
# Format: functional
# Conditions: MOLT-4, 48 h, read-out: GI
row,SMILES,inhibition of growth at 10 µM [%]
1,COc1ccc(CN2c3ccccc3Sc3ccccc32)c(C(F)(F)F)c1,76

# System: not listed separately
# Assay: Cytotoxicity against human SR cells assessed as growth inhibition at 10 uM after 48 hrs by SRB assay relative to control
# Format: functional
# Conditions: read-out: GI
row,SMILES,inhibition of growth at 10 µM [%]
1,COc1ccc(CN2c3ccccc3Sc3ccccc32)c(C(F)(F)F)c1,88

# System: not listed separately
# Assay: Cytotoxicity against human A549 cells assessed as growth inhibition at 10 uM after 48 hrs by SRB assay relative to control
# Format: functional
# Conditions: A549, 48 h, read-out: GI
row,SMILES,inhibition of growth at 10 µM [%]
1,COc1ccc(CN2c3ccccc3Sc3ccccc32)c(C(F)(F)F)c1,67

# System: not listed separately
# Assay: Cytotoxicity against human EKVX cells assessed as growth inhibition at 10 uM after 48 hrs by SRB assay relative to control
# Format: functional
# Conditions: read-out: GI
row,SMILES,inhibition of growth at 10 µM [%]
1,COc1ccc(CN2c3ccccc3Sc3ccccc32)c(C(F)(F)F)c1,50

# System: not listed separately
# Assay: Cytotoxicity against human HOP62 cells assessed as growth inhibition at 10 uM after 48 hrs by SRB assay relative to control
# Format: functional
# Conditions: HOP-62, 48 h, read-out: GI
row,SMILES,inhibition of growth at 10 µM [%]
1,COc1ccc(CN2c3ccccc3Sc3ccccc32)c(C(F)(F)F)c1,59

# System: not listed separately
# Assay: Cytotoxicity against human HOP92 cells assessed as growth inhibition at 10 uM after 48 hrs by SRB assay relative to control
# Format: functional
# Conditions: HOP-92, 48 h, read-out: GI
row,SMILES,inhibition of growth at 10 µM [%]
1,COc1ccc(CN2c3ccccc3Sc3ccccc32)c(C(F)(F)F)c1,61

# System: not listed separately
# Assay: Cytotoxicity against human NCI-H226 cells assessed as growth inhibition at 10 uM after 48 hrs by SRB assay relative to control
# Format: functional
# Conditions: NCI-H226, 48 h, read-out: GI
row,SMILES,inhibition of growth at 10 µM [%]
1,COc1ccc(CN2c3ccccc3Sc3ccccc32)c(C(F)(F)F)c1,42

# System: not listed separately
# Assay: Cytotoxicity against human NCI-H23 cells assessed as growth inhibition at 10 uM after 48 hrs by SRB assay relative to control
# Format: functional
# Conditions: NCI-H23, 48 h, read-out: GI
row,SMILES,inhibition of growth at 10 µM [%]
1,COc1ccc(CN2c3ccccc3Sc3ccccc32)c(C(F)(F)F)c1,56

# System: not listed separately
# Assay: Cytotoxicity against human NCI-H322M cells assessed as growth inhibition at 10 uM after 48 hrs by SRB assay relative to control
# Format: functional
# Conditions: read-out: GI
row,SMILES,inhibition of growth at 10 µM [%]
1,COc1ccc(CN2c3ccccc3Sc3ccccc32)c(C(F)(F)F)c1,51

# System: not listed separately
# Assay: Cytotoxicity against human NCI-H460 cells assessed as growth inhibition at 10 uM after 48 hrs by SRB assay relative to control
# Format: functional
# Conditions: NCI-H460, 48 h, read-out: GI
row,SMILES,inhibition of growth at 10 µM [%]
1,COc1ccc(CN2c3ccccc3Sc3ccccc32)c(C(F)(F)F)c1,90

# System: not listed separately
# Assay: Cytotoxicity against human HCT116 cells assessed as growth inhibition at 10 uM after 48 hrs by SRB assay relative to control
# Format: functional
# Conditions: HCT-116, 48 h, read-out: GI
row,SMILES,inhibition of growth at 10 µM [%]
1,COc1ccc(CN2c3ccccc3Sc3ccccc32)c(C(F)(F)F)c1,92

# System: not listed separately
# Assay: Cytotoxicity against human KM12 cells assessed as growth inhibition at 10 uM after 48 hrs by SRB assay relative to control
# Format: functional
# Conditions: KM12, 48 h, read-out: GI
row,SMILES,inhibition of growth at 10 µM [%]
1,COc1ccc(CN2c3ccccc3Sc3ccccc32)c(C(F)(F)F)c1,80

# System: not listed separately
# Assay: Cytotoxicity against human SF295 cells assessed as growth inhibition at 10 uM after 48 hrs by SRB assay relative to control
# Format: functional
# Conditions: SF-295, 48 h, read-out: GI
row,SMILES,inhibition of growth at 10 µM [%]
1,COc1ccc(CN2c3ccccc3Sc3ccccc32)c(C(F)(F)F)c1,98

# System: not listed separately
# Assay: Cytotoxicity against human SF539 cells assessed as growth inhibition at 10 uM after 48 hrs by SRB assay relative to control
# Format: functional
# Conditions: SF-539, 48 h, read-out: GI
row,SMILES,inhibition of growth at 10 µM [%]
1,COc1ccc(CN2c3ccccc3Sc3ccccc32)c(C(F)(F)F)c1,100

# System: not listed separately
# Assay: Cytotoxicity against human SNB75 cells assessed as growth inhibition at 10 uM after 48 hrs by SRB assay relative to control
# Format: functional
# Conditions: SNB-75, 48 h, read-out: GI
row,SMILES,inhibition of growth at 10 µM [%]
1,COc1ccc(CN2c3ccccc3Sc3ccccc32)c(C(F)(F)F)c1,92

# System: not listed separately
# Assay: Cytotoxicity against human U251 cells assessed as growth inhibition at 10 uM after 48 hrs by SRB assay relative to control
# Format: functional
# Conditions: U-251, 48 h, read-out: GI
row,SMILES,inhibition of growth at 10 µM [%]
1,COc1ccc(CN2c3ccccc3Sc3ccccc32)c(C(F)(F)F)c1,79

# System: not listed separately
# Assay: Cytotoxicity against human MALME-3M cells assessed as growth inhibition at 10 uM after 48 hrs by SRB assay relative to control
# Format: functional
# Conditions: read-out: GI
row,SMILES,inhibition of growth at 10 µM [%]
1,COc1ccc(CN2c3ccccc3Sc3ccccc32)c(C(F)(F)F)c1,7

# System: not listed separately
# Assay: Cytotoxicity against human M14 cells assessed as growth inhibition at 10 uM after 48 hrs by SRB assay relative to control
# Format: functional
# Conditions: M14, 48 h, read-out: GI
row,SMILES,inhibition of growth at 10 µM [%]
1,COc1ccc(CN2c3ccccc3Sc3ccccc32)c(C(F)(F)F)c1,92

# System: not listed separately
# Assay: Cytotoxicity against human MDA-MB-435 cells assessed as growth inhibition at 10 uM after 48 hrs by SRB assay relative to control
# Format: functional
# Conditions: MDA-MB-435, 48 h, read-out: GI
row,SMILES,inhibition of growth at 10 µM [%]
1,COc1ccc(CN2c3ccccc3Sc3ccccc32)c(C(F)(F)F)c1,100

# System: not listed separately
# Assay: Cytotoxicity against human OVCAR3 cells assessed as growth inhibition at 10 uM after 48 hrs by SRB assay relative to control
# Format: functional
# Conditions: OVCAR-3, 48 h, read-out: GI
row,SMILES,inhibition of growth at 10 µM [%]
1,COc1ccc(CN2c3ccccc3Sc3ccccc32)c(C(F)(F)F)c1,94

# System: not listed separately
# Assay: Cytotoxicity against human NCI-ADR-RES cells assessed as growth inhibition at 10 uM after 48 hrs by SRB assay relative to control
# Format: functional
# Conditions: read-out: GI
row,SMILES,inhibition of growth at 10 µM [%]
1,COc1ccc(CN2c3ccccc3Sc3ccccc32)c(C(F)(F)F)c1,77

# System: not listed separately
# Assay: Cytotoxicity against human SKOV3 cells assessed as growth inhibition at 10 uM after 48 hrs by SRB assay relative to control
# Format: functional
# Conditions: SK-OV-3, 48 h, read-out: GI
row,SMILES,inhibition of growth at 10 µM [%]
1,COc1ccc(CN2c3ccccc3Sc3ccccc32)c(C(F)(F)F)c1,82

# System: not listed separately
# Assay: Cytotoxicity against human 786-0 cells assessed as growth inhibition at 10 uM after 48 hrs by SRB assay relative to control
# Format: functional
# Conditions: 786-0, 48 h, read-out: GI
row,SMILES,inhibition of growth at 10 µM [%]
1,COc1ccc(CN2c3ccccc3Sc3ccccc32)c(C(F)(F)F)c1,58

# System: not listed separately
# Assay: Cytotoxicity against human A498 cells assessed as growth inhibition at 10 uM after 48 hrs by SRB assay relative to control
# Format: functional
# Conditions: A498, 48 h, read-out: GI
row,SMILES,inhibition of growth at 10 µM [%]
1,COc1ccc(CN2c3ccccc3Sc3ccccc32)c(C(F)(F)F)c1,96

# System: not listed separately
# Assay: Cytotoxicity against human Caki1 cells assessed as growth inhibition at 10 uM after 48 hrs by SRB assay relative to control
# Format: functional
# Conditions: CAKI-1, 48 h, read-out: GI
row,SMILES,inhibition of growth at 10 µM [%]
1,COc1ccc(CN2c3ccccc3Sc3ccccc32)c(C(F)(F)F)c1,67

# System: not listed separately
# Assay: Cytotoxicity against human RXF393 cells assessed as growth inhibition at 10 uM after 48 hrs by SRB assay relative to control
# Format: functional
# Conditions: RXF 393, 48 h, read-out: GI
row,SMILES,inhibition of growth at 10 µM [%]
1,COc1ccc(CN2c3ccccc3Sc3ccccc32)c(C(F)(F)F)c1,100

# System: not listed separately
# Assay: Cytotoxicity against human TK10 cells assessed as growth inhibition at 10 uM after 48 hrs by SRB assay relative to control
# Format: functional
# Conditions: TK-10, 48 h, read-out: GI
row,SMILES,inhibition of growth at 10 µM [%]
1,COc1ccc(CN2c3ccccc3Sc3ccccc32)c(C(F)(F)F)c1,34

# System: not listed separately
# Assay: Cytotoxicity against human UO31 cells assessed as growth inhibition at 10 uM after 48 hrs by SRB assay relative to control
# Format: functional
# Conditions: UO-31, 48 h, read-out: GI
row,SMILES,inhibition of growth at 10 µM [%]
1,COc1ccc(CN2c3ccccc3Sc3ccccc32)c(C(F)(F)F)c1,54

# System: not listed separately
# Assay: Cytotoxicity against human PC3 cells assessed as growth inhibition at 10 uM after 48 hrs by SRB assay relative to control
# Format: functional
# Conditions: PC-3, 48 h, read-out: GI
row,SMILES,inhibition of growth at 10 µM [%]
1,COc1ccc(CN2c3ccccc3Sc3ccccc32)c(C(F)(F)F)c1,73

# System: not listed separately
# Assay: Cytotoxicity against human DU145 cells assessed as growth inhibition at 10 uM after 48 hrs by SRB assay relative to control
# Format: functional
# Conditions: DU-145, 48 h, read-out: GI
row,SMILES,inhibition of growth at 10 µM [%]
1,COc1ccc(CN2c3ccccc3Sc3ccccc32)c(C(F)(F)F)c1,79

# System: not listed separately
# Assay: Cytotoxicity against human MCF7 cells assessed as growth inhibition at 10 uM after 48 hrs by SRB assay relative to control
# Format: functional
# Conditions: MCF7, 48 h, read-out: GI
row,SMILES,inhibition of growth at 10 µM [%]
1,COc1ccc(CN2c3ccccc3Sc3ccccc32)c(C(F)(F)F)c1,76

# System: not listed separately
# Assay: Cytotoxicity against human MDA-MB-231 cells assessed as growth inhibition at 10 uM after 48 hrs by SRB assay relative to control
# Format: functional
# Conditions: MDA-MB-231, 48 h, read-out: GI
row,SMILES,inhibition of growth at 10 µM [%]
1,COc1ccc(CN2c3ccccc3Sc3ccccc32)c(C(F)(F)F)c1,59

# System: not listed separately
# Assay: Cytotoxicity against human BT549 cells assessed as growth inhibition at 10 uM after 48 hrs by SRB assay relative to control
# Format: functional
# Conditions: BT-549, 48 h, read-out: GI
row,SMILES,inhibition of growth at 10 µM [%]
1,COc1ccc(CN2c3ccccc3Sc3ccccc32)c(C(F)(F)F)c1,47

# System: not listed separately
# Assay: Cytotoxicity against human T47D cells assessed as growth inhibition at 10 uM after 48 hrs by SRB assay relative to control
# Format: functional
# Conditions: read-out: GI
row,SMILES,inhibition of growth at 10 µM [%]
1,COc1ccc(CN2c3ccccc3Sc3ccccc32)c(C(F)(F)F)c1,74

# System: not listed separately
# Assay: Cytotoxicity against human MDA-MB-468 cells assessed as growth inhibition at 10 uM after 48 hrs by SRB assay relative to control
# Format: functional
# Conditions: MDA-MB-468, 48 h, read-out: GI
row,SMILES,inhibition of growth at 10 µM [%]
1,COc1ccc(CN2c3ccccc3Sc3ccccc32)c(C(F)(F)F)c1,81
